Data on two compounds can be found in paper PMC9108871 (Frontiers in Plant Science, 2022).

For assay [1], the system named is ALDH (aldehyde dehydrogenase; ALDH2). As to the kind of experiment: ALDH activity kit (Abcam), absorbance […] nm (NADH standard), Lineweaver-Burk. The following applies: no Effector 3; incubation 1 h; varied substrate acetaldehyde (Methods). The assay is classed as biochemical, Citrus sinensis.
Assay [2] concerns GH17 (Glycosyl Hydrolase family 17). Put plainly: beta-glucosidase kit (MAK129), absorbance […] nm, Lineweaver-Burk. Format: biochemical, Citrus sinensis. The following applies: K-phosphate 100 mM, pH 6.5, 37°C, 20 min; no LasP235; substrate taken from Methods.

SMILES strings stand for the structures.

The Km is the substrate concentration at which the rate is half of its maximum.

In the case of `CC=O` [acetaldehyde], the Km in assay [1] was determined as 2130 µM. On to `O=[N+]([O-])c1ccc(O[C@@H]2O[C@H](CO)[C@@H](O)[C@H](O)[C@H]2O)cc1` [p-nitrophenyl-β-D-glucopyranoside], for which the Km in assay [2] came to 42 µM.
